Data: patent publication US20120095215A1, “MEDICAL COMPOSITION FOR TREATMENT OR PROPHYLAXIS OF EYE DISEASES” (UBE INDUSTRIES, LTD., priority 2009, published 2012)
Structures can show the parent of a compound that is named as a salt.

Key:
αvβ3 protein = molecular target: T1, αvβ3 protein (Homo sapiens, UniProt P05106+P06756); assay: αvβ3 protein binding test (fluorescence polarization, FITC-Echistatin); conditions: inhibition of binding of Echistatin and αvβ3 protein, 37° C., 30 minutes
T1 construct: purchased CHEMICON CORP; CC1019
Experimental: The method of Davis et al. (Proc. Natl. Acad. Sci., 96(16), 9269 (1999)) was partially modified and carried out.
By using Echistatin (available from SIGMA), Fluorescein Amine Labeling Kit for Peptides and Proteins (available from PanVera Corp., P2058) and Gel Filtration of Proteins Kit (P2101, PanVera Corp.), fluorescein isothiocyanate (hereinafter abbreviated to as FITC)-Echistatin was prepared. Then, with 137 μL of Tris-buffer (10 mM Tris base, 1 mM CaCl2, 1 mM MgCl2, 1 mM MnCl2, pH 7.4) were mixed 1 μL of 200 nM FITC-Echistatin (final concentration: 1 nM) and 2 μL of […] bovine serum albumin (hereinafter abbreviated to as BSA; available from SIGMA) (final concentration: 1 mg/mL). To the mixture was added 10 μL of the test compound, then, 50 μL of 4 nM αvβ3 (CC1019, available from CHEMICON CORP.) (final concentration: 1 nM) was added to the mixture and the resulting mixture was incubated at 37° C. for 30 minutes. By measuring fluorescence polarization degrees with BEACON2000 (available from PanVera Corp.), binding of Echistatin and αvβ3 protein was evaluated. The concentration (IC50 value) of the test compound necessary for inhibiting 50% of binding of Echistatin and αvβ3 protein was calculated by using EXSAS (available from Arm Systecs Co. Ltd.).

[1] = system: HUVEC (human umbilical vein endothelial cell), αvβ3 expressing cell; assay: αvβ3 expressing cell adhesion test (HUVEC on human vitronectin); assay type: cell-based; conditions: HUVEC binding to human vitronectin, 50% human serum-containing DMEM, 1 hour; read-out: αvβ3 developed cell adhesion inhibition IC50 value
Experimental: The method of Juliano, et al. (Exp. Cell Res., 225(1), 132 (1996)) was partially modified and carried out.
Human vitronectin (available from CHEMICON CORP.) was adjusted to 10 μg/mL with phosphate buffered saline (hereinafter abbreviated to as PBS). This was apportioned on a 96-well plate (MS9586F, available from SUMIRON Co., Ltd.) with 100 μL/well, subjected to coating at room temperature for 1 hour, then, the coating solution was removed and dried. Thereafter, blocking treatment was carried out by 1.0% BSA dissolved in Dulbecco's Modified Eagle's Medium (hereinafter abbreviated to as DMEM) for 1 hour, followed by washing with PBS, and the obtained material was used for the adhesion test as a coating plate. HUVEC (human umbilical vein endothelial cell) (available from Clonetics Corp.) cultured in an endocerial cell basal medium EBM2 (available from Clonetics Corp.) containing growth factor EGM2 (available from Clonetics Corp.) and 10% fatal bovin serum (hereinafter abbreviated to as FBS) was peeled by using trypsin-ethylenediamine tetraacetic acid, washed by using PBS and recovered, and then, suspended in 50% human serum-containing DMEM to prepare a cell solution of HUVEC. To human vitronectin coating plates was added a 50% human serum-containing DMEM solution containing the HUVEC cell solution and the test compound each 50 μL/plate to start the adhesion test. […]

αvβ5 protein = molecular target: T2, αvβ5 protein (Homo sapiens, UniProt P06756+P18084); assay: αvβ5 protein binding test (Biotin-Echistatin plate assay); conditions: inhibition of binding between Echistatin and αvβ5 protein
T2 construct: purchased CHEMICON Corp. CC1023
Experimental: The method of C. P. Carron et al. (J. Endocrinology, 165, 587 (2000)) was partially modified and carried out.
By using Echistatin (available from Bachem) and EZ-Link NHS-Biotin Reagent (available from Pierce Biotechnology Inc.), Biotin-Echistatin was prepared. Then, αvβ5 (CC1023, available from CHEMICON Corp.) was mixed with a Tris buffer solution (20 mM tris(hydroxymethyl)aminomethane, 150 mM NaCl, 1 mM CaCl2, 1 mM MgCl2, 1 mM MnCl2, pH 7.5), the mixture was added to Nunc immunoplate Maxisoap (available from Nalge Nunc Int. Co.), and incubated at room temperature overnight. The solution was removed, a Block Ace (available from Dai Nippon Sumitomo Pharma Co., Ltd.) solution was added to the residue and the mixture was incubated at room temperature for 2 hours, then, the solution was again removed and the residue was washed with 0.05% Tween-PBS. Next, a Tris buffer solution containing 10 mg/mL of bovine serum albumin (hereinafter abbreviated to as BSA; available from SIGMA) and the test compound was added to the mixture, and the resulting mixture was incubated at room temperature for 30 minutes. […] An absorbance at 495 nm was measured by Microplate reader (Spectra Fluor, available from TECAN Group, Ltd.) to evaluate binding of Echistatin and αvβ5 protein. […]

T1 sequence (P06756 31-889 limits assumed): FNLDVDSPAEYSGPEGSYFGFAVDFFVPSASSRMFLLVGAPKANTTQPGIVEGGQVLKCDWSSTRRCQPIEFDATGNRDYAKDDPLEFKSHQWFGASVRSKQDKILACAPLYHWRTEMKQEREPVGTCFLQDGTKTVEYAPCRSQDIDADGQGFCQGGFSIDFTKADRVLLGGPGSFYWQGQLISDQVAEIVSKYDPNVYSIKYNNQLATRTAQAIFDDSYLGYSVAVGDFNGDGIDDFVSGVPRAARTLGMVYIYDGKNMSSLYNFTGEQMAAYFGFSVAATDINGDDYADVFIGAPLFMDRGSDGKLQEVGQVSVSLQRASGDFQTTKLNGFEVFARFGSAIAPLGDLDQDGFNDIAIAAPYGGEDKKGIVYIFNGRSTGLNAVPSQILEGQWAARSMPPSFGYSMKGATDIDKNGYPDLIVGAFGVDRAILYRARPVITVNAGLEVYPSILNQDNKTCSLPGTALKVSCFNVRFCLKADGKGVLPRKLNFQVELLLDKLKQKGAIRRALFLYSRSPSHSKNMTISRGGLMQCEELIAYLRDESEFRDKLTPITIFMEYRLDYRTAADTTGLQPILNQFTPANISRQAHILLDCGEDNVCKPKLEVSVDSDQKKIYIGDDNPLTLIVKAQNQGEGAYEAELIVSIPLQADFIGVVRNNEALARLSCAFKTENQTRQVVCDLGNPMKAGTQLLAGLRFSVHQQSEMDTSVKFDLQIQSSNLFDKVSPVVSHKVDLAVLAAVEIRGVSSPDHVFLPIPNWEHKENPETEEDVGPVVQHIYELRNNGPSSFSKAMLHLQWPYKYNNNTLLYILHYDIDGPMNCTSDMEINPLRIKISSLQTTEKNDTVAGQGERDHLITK
T1 sequence (P06756 891-1048 partner limits assumed): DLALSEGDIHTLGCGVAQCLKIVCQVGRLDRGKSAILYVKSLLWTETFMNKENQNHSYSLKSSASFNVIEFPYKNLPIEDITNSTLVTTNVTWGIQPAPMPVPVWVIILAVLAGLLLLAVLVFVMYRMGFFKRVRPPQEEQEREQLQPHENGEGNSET
T1 sequence (P05106 27-788): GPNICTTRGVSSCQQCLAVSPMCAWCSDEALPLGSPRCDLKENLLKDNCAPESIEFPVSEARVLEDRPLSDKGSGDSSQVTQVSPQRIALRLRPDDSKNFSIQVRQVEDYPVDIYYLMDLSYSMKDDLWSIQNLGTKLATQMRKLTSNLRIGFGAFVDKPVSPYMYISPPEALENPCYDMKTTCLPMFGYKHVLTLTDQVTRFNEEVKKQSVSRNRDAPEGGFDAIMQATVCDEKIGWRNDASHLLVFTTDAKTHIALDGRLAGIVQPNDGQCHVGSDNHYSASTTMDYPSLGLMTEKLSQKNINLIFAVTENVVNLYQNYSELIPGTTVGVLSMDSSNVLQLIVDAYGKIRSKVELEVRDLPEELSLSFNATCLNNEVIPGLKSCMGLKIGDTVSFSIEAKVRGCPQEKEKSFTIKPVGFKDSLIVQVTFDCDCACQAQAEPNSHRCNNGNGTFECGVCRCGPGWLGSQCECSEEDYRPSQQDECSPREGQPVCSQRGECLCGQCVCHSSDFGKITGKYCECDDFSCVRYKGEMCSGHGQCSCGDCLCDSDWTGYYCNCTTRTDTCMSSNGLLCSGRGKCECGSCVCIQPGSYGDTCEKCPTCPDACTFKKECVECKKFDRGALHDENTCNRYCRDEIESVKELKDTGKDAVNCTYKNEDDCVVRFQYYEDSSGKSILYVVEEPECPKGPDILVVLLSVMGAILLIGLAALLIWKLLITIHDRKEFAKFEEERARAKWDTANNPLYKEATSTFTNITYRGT
T2 sequence (P06756 31-889 limits assumed): as the sequence (P06756 31-889 limits assumed) above
T2 sequence (P06756 891-1048 partner limits assumed): as the sequence (P06756 891-1048 partner limits assumed) above
T2 sequence (P18084 24-799): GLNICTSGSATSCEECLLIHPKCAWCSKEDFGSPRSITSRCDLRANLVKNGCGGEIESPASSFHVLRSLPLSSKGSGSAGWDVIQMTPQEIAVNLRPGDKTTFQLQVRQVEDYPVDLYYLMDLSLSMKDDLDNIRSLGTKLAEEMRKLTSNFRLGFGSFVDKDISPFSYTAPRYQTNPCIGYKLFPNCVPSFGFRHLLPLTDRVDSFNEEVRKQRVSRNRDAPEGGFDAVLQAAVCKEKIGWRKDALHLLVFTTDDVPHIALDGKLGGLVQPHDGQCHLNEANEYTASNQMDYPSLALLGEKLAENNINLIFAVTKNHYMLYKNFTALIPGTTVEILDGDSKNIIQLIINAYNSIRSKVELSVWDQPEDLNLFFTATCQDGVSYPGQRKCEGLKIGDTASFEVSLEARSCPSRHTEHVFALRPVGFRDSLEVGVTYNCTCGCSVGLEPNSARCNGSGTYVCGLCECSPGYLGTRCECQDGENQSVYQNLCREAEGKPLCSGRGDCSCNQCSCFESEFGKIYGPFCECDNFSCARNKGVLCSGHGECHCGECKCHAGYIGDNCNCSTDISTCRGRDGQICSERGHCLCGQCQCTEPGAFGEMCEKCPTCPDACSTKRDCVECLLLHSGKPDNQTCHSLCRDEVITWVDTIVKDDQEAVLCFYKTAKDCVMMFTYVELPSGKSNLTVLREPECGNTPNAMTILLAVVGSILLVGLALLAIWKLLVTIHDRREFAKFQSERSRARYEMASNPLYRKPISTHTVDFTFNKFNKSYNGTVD

| Structure (SMILES) | IC50 (αvβ3 protein) [nM] | IC50 (αvβ5 protein) [nM] | IC50 [1] [nM] |
| --- | --- | --- | --- |
| O=C(O)CC1Cc2ccc(OCCc3cn4c(n3)NCCC4)cc2CN(CC(F)(F)F)C1=O (stereo not drawn) [Example 2, 3-oxo-8-[2-(5,6,7,8-tetrahydroimidazo[1,2-a]pyrimidin-2-yl)ethoxy]-2-(2,2,2-trifluoroethyl)-2,3,4,5-tetrahydro-1H-2-benzazepin-4-acetate trifluoroacetate] | 1.2 |  | 61 |
| O=C(O)CC1Cc2ccc(OCCc3cn4c(n3)NCCN4)cc2CN(CC(F)(F)F)C1=O (stereo not drawn) [Example 3, 3-Oxo-8-[2-(1,2,3,4-tetrahydroimidazo[1,2-b][1,2,4]triazin-6-yl)ethoxy]-2-(2,2,2-trifluoroethyl)-2,3,4,5-tetrahydro-1H-2-benzazepin-4-acetate trifluoroacetate] | 1.3 |  |  |
| O=C(O)C[C@@H]1Cc2ccc(OCCc3cn4c(n3)NCCC4)cc2CN(CC(F)(F)F)C1=O [Example 4, (4S)-3-oxo-8-[2-(5,6,7,8-tetrahydroimidazo[1,2-a]pyrimidin-2-yl)ethoxy]-2-(2,2,2-trifluoroethyl)-2,3,4,5-tetrahydro-1H-2-benzazepin-4-acetic acid] | 0.6 | 0.2 |  |

Continued, in another order:

| IC50 (αvβ3 protein) [nM] | IC50 (αvβ5 protein) [nM] | Structure (SMILES) | IC50 [1] [nM] |
| --- | --- | --- | --- |
| 7.1 |  | CNc1cccc(CCOc2ccc3c(c2)CN(CC(F)(F)F)C(=O)C(CC(=O)O)C3)n1 (racemic) [Compund A, 8-[2-[6-(methylamino)pyridin-2-yl]-1-ethoxy]-3-oxo-2-(2,2,2-trifluoroethyl)-2,3,4,5-tetrahydro-1H-2-benzazepin-4-acetic acid, reference compound] | 161 |
| 2.6 | 1.3 | O=C(O)C[C@@H]1Cc2ccc(OCCCNc3ccccn3)cc2CN(CC(F)(F)F)C1=O [Compund B, (4S)-3-oxo-8-[3-(pyridin-2-ylamino)-1-propyloxy]-2-(2,2,2-trifluoroethyl)-2,3,4,5-tetrahydro-1H-2-benzazepin-4-acetic acid, reference compound] |  |
